Assay results as given in the supplement of paper PMC10307832.

Key:
Assay in all cases: relative viability (nuclei count vs DMSO), 5 days (fraction); higher = more cells survive
NCI-H1299 = system: NCI-H1299
How it was run: (§1)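 The day after seeding in 1536-well plates, lung cancer cell lines were treated by pin tool with a single drug, or with a fixed anchor-drug dose together with five library-drug doses (not always all listed) in √10 steps. After 5 days, a combined fix-and-stain solution (final 0.05% Triton X-100, 1% formaldehyde, 1 ug/ml Hoechst) was added. Nuclei counted on 4× images gave relative viability as treated counts over vehicle counts, reported as the median of duplicate plates.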

UMC-11 = system: UMC-11
How it was run: as §1

NCI-H1395 = system: NCI-H1395
How it was run: as §1

HCC-44 = system: HCC-44
How it was run: as §1

IA-LM = system: IA-LM
How it was run: as §1

EKVX = system: EKVX
How it was run: as §1

NCI-H1755 = system: NCI-H1755
How it was run: as §1

EBC-1 = system: EBC-1
How it was run: as §1

NCI-H1703 = system: NCI-H1703
How it was run: as §1

Calu-6 = system: Calu-6
How it was run: as §1

LCLC-103H = system: LCLC-103H
How it was run: as §1

A549 = system: A549
How it was run: as §1

HCC-15 = system: HCC-15
How it was run: as §1

## O=c1cc(N2CCOCC2)oc2c(-c3cccc4c3sc3ccccc34)cccc12 + CS(=O)(=O)N1CCN(Cc2cc3nc(-c4cccc5[nH]ncc45)nc(N4CCOCC4)c3s2)CC1 [Pictilisib] (partner 1 µM)
NCI-H1299; first compound 0.01 µM
  relative viability: 0.922
NCI-H1299; first compound 0.03162 µM
  relative viability: 0.688
NCI-H1299; first compound 0.1 µM
  relative viability: 0.897
NCI-H1299; first compound 0.3162 µM
  relative viability: 0.816
NCI-H1299; first compound 1 µM
  relative viability: 0.801
UMC-11; first compound 0.01 µM
  relative viability: 0.812
UMC-11; first compound 0.03162 µM
  relative viability: 0.825
UMC-11; first compound 0.1 µM
  relative viability: 0.773
UMC-11; first compound 0.3162 µM
  relative viability: 0.819
UMC-11; first compound 1 µM
  relative viability: 0.796
NCI-H1395; first compound 0.01 µM
  relative viability: 0.587
NCI-H1395; first compound 0.03162 µM
  relative viability: 0.653
NCI-H1395; first compound 0.1 µM
  relative viability: 0.484
NCI-H1395; first compound 0.3162 µM
  relative viability: 0.623
NCI-H1395; first compound 1 µM
  relative viability: 0.627
HCC-44; first compound 0.01 µM
  relative viability: 0.638
HCC-44; first compound 0.03162 µM
  relative viability: 0.659
HCC-44; first compound 0.1 µM
  relative viability: 1.87
HCC-44; first compound 0.3162 µM
  relative viability: 0.543
HCC-44; first compound 1 µM
  relative viability: 0.549
IA-LM; first compound 0.01 µM
  relative viability: 0.304
IA-LM; first compound 0.03162 µM
  relative viability: 0.34
IA-LM; first compound 0.1 µM
  relative viability: 0.271
IA-LM; first compound 0.3162 µM
  relative viability: 0.357
IA-LM; first compound 1 µM
  relative viability: 0.337
EKVX; first compound 0.01 µM
  relative viability: 0.418
EKVX; first compound 0.03162 µM
  relative viability: 0.496
EKVX; first compound 0.1 µM
  relative viability: 0.507
EKVX; first compound 0.3162 µM
  relative viability: 0.439
EKVX; first compound 1 µM
  relative viability: 0.431
NCI-H1755; first compound 0.01 µM
  relative viability: 0.288
NCI-H1755; first compound 0.03162 µM
  relative viability: 0.402
NCI-H1755; first compound 0.1 µM
  relative viability: 0.457
NCI-H1755; first compound 0.3162 µM
  relative viability: 0.458
NCI-H1755; first compound 1 µM
  relative viability: 0.395
EBC-1; first compound 0.01 µM
  relative viability: 0.409
EBC-1; first compound 0.03162 µM
  relative viability: 0.35
EBC-1; first compound 0.1 µM
  relative viability: 0.338
EBC-1; first compound 0.3162 µM
  relative viability: 0.378
EBC-1; first compound 1 µM
  relative viability: 0.371
NCI-H1703; first compound 0.01 µM
  relative viability: 0.245
NCI-H1703; first compound 0.03162 µM
  relative viability: 0.221
NCI-H1703; first compound 0.1 µM
  relative viability: 0.223
NCI-H1703; first compound 0.3162 µM
  relative viability: 0.253
NCI-H1703; first compound 1 µM
  relative viability: 0.252
Calu-6; first compound 0.01 µM
  relative viability: 0.879
Calu-6; first compound 0.03162 µM
  relative viability: 0.917
Calu-6; first compound 0.1 µM
  relative viability: 1.06
Calu-6; first compound 0.3162 µM
  relative viability: 0.9
Calu-6; first compound 1 µM
  relative viability: 1.04
LCLC-103H; first compound 0.01 µM
  relative viability: 0.64
LCLC-103H; first compound 0.03162 µM
  relative viability: 0.664
LCLC-103H; first compound 0.1 µM
  relative viability: 0.649
LCLC-103H; first compound 0.3162 µM
  relative viability: 0.627
LCLC-103H; first compound 1 µM
  relative viability: 0.577
A549; first compound 0.01 µM
  relative viability: 0.582
A549; first compound 0.03162 µM
  relative viability: 0.526
A549; first compound 0.1 µM
  relative viability: 0.601
A549; first compound 0.3162 µM
  relative viability: 0.516
A549; first compound 1 µM
  relative viability: 0.599
HCC-15; first compound 0.01 µM
  relative viability: 0.66
HCC-15; first compound 0.03162 µM
  relative viability: 0.74
HCC-15; first compound 0.1 µM
  relative viability: 0.939
HCC-15; first compound 0.3162 µM
  relative viability: 0.774
HCC-15; first compound 1 µM
  relative viability: 0.714

## O=c1cc(-c2cccc3c2Sc2ccccc2S3)oc(N2CCOCC2)c1 + CS(=O)(=O)N1CCN(Cc2cc3nc(-c4cccc5[nH]ncc45)nc(N4CCOCC4)c3s2)CC1 [Pictilisib] (partner 1 µM)
NCI-H1299; first compound 0.08 µM
  relative viability: 0.679
NCI-H1299; first compound 0.253 µM
  relative viability: 0.827
NCI-H1299; first compound 0.8 µM
  relative viability: 0.856
NCI-H1299; first compound 2.53 µM
  relative viability: 0.763
NCI-H1299; first compound 8 µM
  relative viability: 0.854
UMC-11; first compound 0.08 µM
  relative viability: 0.815
UMC-11; first compound 0.253 µM
  relative viability: 1.09
UMC-11; first compound 0.8 µM
  relative viability: 0.992
UMC-11; first compound 2.53 µM
  relative viability: 0.752
UMC-11; first compound 8 µM
  relative viability: 1
NCI-H1395; first compound 0.08 µM
  relative viability: 0.634
NCI-H1395; first compound 0.253 µM
  relative viability: 0.602
NCI-H1395; first compound 0.8 µM
  relative viability: 0.534
NCI-H1395; first compound 2.53 µM
  relative viability: 0.579
NCI-H1395; first compound 8 µM
  relative viability: 1.05
HCC-44; first compound 0.08 µM
  relative viability: 0.457
HCC-44; first compound 0.253 µM
  relative viability: 0.655
HCC-44; first compound 0.8 µM
  relative viability: 0.536
HCC-44; first compound 2.53 µM
  relative viability: 0.468
HCC-44; first compound 8 µM
  relative viability: 0.577
IA-LM; first compound 0.08 µM
  relative viability: 0.278
IA-LM; first compound 0.8 µM
  relative viability: 0.328
IA-LM; first compound 2.53 µM
  relative viability: 0.346
IA-LM; first compound 8 µM
  relative viability: 0.315
EKVX; first compound 0.08 µM
  relative viability: 0.418
EKVX; first compound 0.253 µM
  relative viability: 0.521
EKVX; first compound 0.8 µM
  relative viability: 0.286
EKVX; first compound 2.53 µM
  relative viability: 0.439
EKVX; first compound 8 µM
  relative viability: 0.47
NCI-H1755; first compound 0.08 µM
  relative viability: 0.369
NCI-H1755; first compound 0.253 µM
  relative viability: 0.489
NCI-H1755; first compound 0.8 µM
  relative viability: 0.481
NCI-H1755; first compound 2.53 µM
  relative viability: 0.431
NCI-H1755; first compound 8 µM
  relative viability: 0.444
EBC-1; first compound 0.08 µM
  relative viability: 0.352
EBC-1; first compound 0.253 µM
  relative viability: 0.469
EBC-1; first compound 0.8 µM
  relative viability: 0.342
EBC-1; first compound 2.53 µM
  relative viability: 0.401
EBC-1; first compound 8 µM
  relative viability: 0.298
NCI-H1703; first compound 0.253 µM
  relative viability: 0.25
NCI-H1703; first compound 0.8 µM
  relative viability: 0.279
NCI-H1703; first compound 2.53 µM
  relative viability: 0.241
NCI-H1703; first compound 8 µM
  relative viability: 0.316
Calu-6; first compound 0.08 µM
  relative viability: 0.86
Calu-6; first compound 0.253 µM
  relative viability: 0.882
Calu-6; first compound 0.8 µM
  relative viability: 0.96
Calu-6; first compound 2.53 µM
  relative viability: 0.959
Calu-6; first compound 8 µM
  relative viability: 0.871
LCLC-103H; first compound 0.08 µM
  relative viability: 0.63
LCLC-103H; first compound 0.253 µM
  relative viability: 0.531
LCLC-103H; first compound 0.8 µM
  relative viability: 0.505
LCLC-103H; first compound 2.53 µM
  relative viability: 0.489
LCLC-103H; first compound 8 µM
  relative viability: 0.616
A549; first compound 0.08 µM
  relative viability: 0.542
A549; first compound 0.253 µM
  relative viability: 0.852
A549; first compound 0.8 µM
  relative viability: 0.681
A549; first compound 2.53 µM
  relative viability: 0.481
A549; first compound 8 µM
  relative viability: 0.651
HCC-15; first compound 0.08 µM
  relative viability: 0.732
HCC-15; first compound 0.253 µM
  relative viability: 0.858
HCC-15; first compound 0.8 µM
  relative viability: 0.797
HCC-15; first compound 2.53 µM
  relative viability: 0.674
HCC-15; first compound 8 µM
  relative viability: 0.793
